# Experimental data reported in BindingDB's records for doi:10.1021/acs.jmedchem.8b00277 (2018).
# Assay: Inhibition of HIV1 NL4-3 protease assessed as decrease in viral replication in human MT2 cells after 4 days by luciferase reporter gene assay
row,EC50,Compound
1,5.3 nM,COC(=O)N[C@H](C(=O)NN(Cc1ccc(-c2ccccn2)cc1)C[C@H](OC(=O)[C@@H](NC(=O)OC)C(C)(C)C)[C@H](Cc1ccccc1)NC(=O)OC(OC(=O)[C@@H](N)C(C)C)C(C)C)C(C)(C)C (stereo partly drawn)
2,1.8 nM,COC(=O)N[C@H](C(=O)NN(Cc1ccc(-c2ccccn2)cc1)C[C@H](OC(=O)[C@@H](NC(=O)OC)C(C)(C)C)[C@@H](N)Cc1ccccc1)C(C)(C)C
3,0.7 nM,COC(=O)N[C@H](C(=O)N[C@@H](Cc1ccccc1)[C@@H](O)CN(Cc1ccc(-c2ccccn2)cc1)NC(=O)[C@@H](NC(=O)OC)C(C)(C)C)C(C)(C)C [CGP 73547]
